pIC50: −log10 of the molar value.
How the values were obtained:
[1] = target: human constitutive proteasome (Beta5) (Homo sapiens (Human), UniProt P28074); experiment: Determination of Beta5 activity (fluorescence intensity assay, Suc-LLVY-AMC); assay type: biochemical
In short: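 Purified human constitutive proteasome (1.25 nM) preincubated with compounds (30 μM–15 pM) for 20 min (default) or 120 min at 25 °C in 50 mM Tris pH 7.4, 0.03% SDS, 1 mM EDTA, 1% DMSO. Suc-LLVY-AMC substrate at 40 μM, 60 min at 37 °C. Fluorescence read at ex 350/em 450 nm.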

[2] = target: human immuno proteasome (LMP7) (Homo sapiens (Human), UniProt P28062); experiment: Determination of LMP7 activity (fluorescence intensity assay, Suc-LLVY-AMC); assay type: biochemical
In short: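 Fluorogenic Suc-LLVY-AMC cleavage (40 μM substrate, 60 min, 37° C., ex 350/em 450 nm) measured after 0.25 nM human immunoproteasome was exposed to compound at 30 μM–15 pM. Preincubation was 20 min by default or 120 min (long) at 25° C., in Tris pH 7.4 with 0.03% SDS, 1 mM EDTA and 1% DMSO.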

[3] = LMP7 versus Beta5, long incubation (120 min)
[4] = LMP7 versus Beta5, incubation for 20 minutes

In the case of `C=CC(=O)N(CC(=O)N[C@@H](Cc1ccccc1)B(O)O)c1ccccc1F` [Compound No. 44, [(1R)-1-[[2-(2-fluoro-N-prop-2-enoyl-anilino)acetyl]amino]-2-phenyl-ethyl]boronic Acid], the pIC50 ([1]; long incubation (120 min)) was under 5.30, the “Selectivity LMP7 vs Beta5” value [2, 3] was “+++++ (Selectivity ≥ 150)” and the pIC50 ([2]; long incubation (120 min)) was over 7.30.

With `C=CC(=O)N(CC(=O)N[C@@H](Cc1ccc(C)c(C)c1)B(O)O)CC(F)(F)F` [Compound No. 61, [(1R)-2-(3,4-dimethylphenyl)-1-[[2-[prop-2-enoyl(2,2,2-trifluoroethyl)amino]acetyl]amino]ethyl]boronic Acid] the pIC50 ([1]; long incubation (120 min)) was under 5.30, the “Selectivity LMP7 vs Beta5” value [2, 3] was “+++++ (Selectivity ≥ 150)” and the pIC50 ([2]; long incubation (120 min)) was over 7.30.

With `C#CC(=O)N(CC(=O)N[C@@H](Cc1ccc(C)cc1C)B(O)O)c1ccccc1` [Compound No. 7, [(1R)-2-(2,4-dimethylphenyl)-1-[[2-(N-prop-2-ynoylanilino)acetyl]-amino]ethyl]boronic Acid] the pIC50 ([1]; incubation for 20 minutes) was 5.30 to 6.30, the “Selectivity LMP7 vs Beta5” value [2, 4] was “++++ (100 ≤ Selectivity < 150)” and the pIC50 ([2]; incubation for 20 minutes) was over 7.30.

For `C=CC(=O)N(c1ccccc1)[C@H](C)C(=O)N[C@@H](Cc1ccc(C)c(C)c1)B(O)O` [Compound No. 47, [(1R)-2-(3,4-dimethylphenyl)-1-[[(2R)-2-(N-prop-2-enoylanilino)propanoyl]amino]ethyl]boronic Acid], the pIC50 ([1]; long incubation (120 min)) was under 5.30, the “Selectivity LMP7 vs Beta5” value [2, 3] was “+++++ (Selectivity ≥ 150)” and the pIC50 ([2]; long incubation (120 min)) was 6.30 to 7.30.

For `C=CC(=O)N(CC(=O)N[C@@H](Cc1ccc(C)cc1C)B(O)O)C(C)C` [Compound No. 27, [(1R)-2-(2,4-dimethylphenyl)-1-[[2-[isopropyl(prop-2-enoyl)amino]-acetyl]amino]ethyl]boronic Acid], the pIC50 ([1]; incubation for 20 minutes) was under 5.30, the “Selectivity LMP7 vs Beta5” value [2, 4] was “+++ (70 ≤ 100)” and the pIC50 ([2]; incubation for 20 minutes) was 6.30 to 7.30.

`C=CC(=O)N(C)[C@H](C)C(=O)N[C@@H](Cc1ccc(C)cc1C)B(O)O` [Compound No. 52, [(1R)-2-(2,4-dimethylphenyl)-1-[[(2R)-2-[methyl(prop-2-enoyl)amino]propanoyl]amino]ethyl]boronic Acid] was tested, and the pIC50 ([1]; long incubation (120 min)) was under 5.30, the “Selectivity LMP7 vs Beta5” value [2, 3] was “++ (50 ≤ Selectivity < 70)” and the pIC50 ([2]; long incubation (120 min)) was 5.30 to 6.30.

`C=CC(=O)N(C)[C@@H](C)C(=O)N[C@@H](Cc1ccc(C)c(C)c1)B(O)O` [Compound No. 68, [(1R)-2-(3,4-dimethylphenyl)-1-[[(2S)-2-[methyl(prop-2-enoyl)amino]propanoyl]amino]ethyl]boronic Acid] was tested, and the pIC50 ([1]; long incubation (120 min)) was under 5.30, the “Selectivity LMP7 vs Beta5” value [2, 3] was “+++++ (Selectivity ≥ 150)” and the pIC50 ([2]; long incubation (120 min)) was 6.30 to 7.30.

With `C=CC(=O)N(c1ccccc1)[C@@H](C)C(=O)N[C@@H](Cc1ccc(C)c(C)c1)B(O)O` [Compound No. 48, [(1R)-2-(3,4-dimethylphenyl)-1-[[(2S)-2-(N-prop-2-enoylanilino)propanoyl]amino]ethyl]boronic Acid] the pIC50 ([1]; incubation for 20 minutes) was under 5.30, the “Selectivity LMP7 vs Beta5” value [2, 4] was “++ (50 ≤ Selectivity < 70)” and the pIC50 ([2]; incubation for 20 minutes) was 5.30 to 6.30.

For `C=CC(=O)N(CC(=O)N[C@@H](Cc1ccc(C)cc1C)B(O)O)c1c(F)cccc1F` [Compound No. 43, [(1R)-1-[[2-(2,6-difluoro-N-prop-2-enoyl-anilino)acetyl]amino]-2-(2,4-dimethylphenyl)ethyl]boronic Acid], the pIC50 ([1]; long incubation (120 min)) was under 5.30, the “Selectivity LMP7 vs Beta5” value [2, 3] was “+++++ (Selectivity ≥ 150)” and the pIC50 ([2]; long incubation (120 min)) was over 7.30.

For `C=CC(=O)N(CC(=O)N[C@@H](Cc1ccsc1)B(O)O)c1ccc(C(=O)N(C)C)cc1` [Compound No. 103, [(1R)-1-[[2-[4-(dimethylcarbamoyl)-N-prop-2-enoyl-anilino]acetyl]amino]-2-(3-thienyl)ethyl]boronic Acid], the pIC50 ([1]; long incubation (120 min)) was 5.30 to 6.30, the “Selectivity LMP7 vs Beta5” value [2, 3] was “+++++ (Selectivity ≥ 150)” and the pIC50 ([2]; long incubation (120 min)) was over 7.30.

With `C=CC(=O)N(CC(=O)N[C@@H](Cc1ccc(C)cc1C)B(O)O)c1ccccc1` [Compound No. 26, [(1R)-2-(2,4-dimethylphenyl)-1-[[2-(N-prop-2-enoylanilino)acetyl]-amino]ethyl]boronic Acid] the pIC50 ([1]; incubation for 20 minutes) was 5.30 to 6.30, the “Selectivity LMP7 vs Beta5” value [2, 4] was “+++++ (Selectivity ≥ 150)” and the pIC50 ([2]; incubation for 20 minutes) was over 7.30.

For `C=CC(=O)N(CC(=O)N[C@@H](Cc1ccc(C)c(C)c1)B(O)O)CC(F)F` [Compound No. 83, [(1R)-1-[[2-[2,2-difluoroethyl(prop-2-enoyl)amino]acetyl]-amino]-2-(3,4-dimethylphenyl)ethyl]boronic Acid], the pIC50 ([1]; long incubation (120 min)) was under 5.30, the “Selectivity LMP7 vs Beta5” value [2, 3] was “+++++ (Selectivity ≥ 150)” and the pIC50 ([2]; long incubation (120 min)) was 6.30 to 7.30.

In the case of `C=CC(=O)N(CC(=O)N[C@@H](Cc1ccsc1)B(O)O)c1ccccc1Cl` [Compound No. 89, [(1R)-1-[[2-(2-chloro-N-prop-2-enoyl-anilino)acetyl]amino]-2-(3-thienyl)ethyl]boronic Acid], the pIC50 ([1]; long incubation (120 min)) was under 5.30, the “Selectivity LMP7 vs Beta5” value [2, 3] was “+++++ (Selectivity ≥ 150)” and the pIC50 ([2]; long incubation (120 min)) was 6.30 to 7.30.

In the case of `C=CC(=O)N(CC)CC(=O)N[C@@H](Cc1coc2ccccc12)B(O)O` [Compound No. 36, [(1R)-2-(benzofuran-3-yl)-1-[[2-[ethyl(prop-2-enoyl)amino]acetyl]-amino]ethyl]boronic Acid], the pIC50 ([1]; incubation for 20 minutes) was 6.30 to 7.30, the “Selectivity LMP7 vs Beta5” value [2, 4] was “+++ (70 ≤ 100)” and the pIC50 ([2]; incubation for 20 minutes) was over 7.30.

In the case of `C=CC(=O)N(C)CC(=O)N[C@H](Cc1ccsc1)B(O)O` [Compound No. 73, [(1S)-1-[[2-[methyl(prop-2-enoyl)amino]acetyl]amino]-2-(3-thienyl)ethyl]boronic Acid], the pIC50 ([1]; long incubation (120 min)) was under 5.30, the “Selectivity LMP7 vs Beta5” value [2, 3] was “++ (50 ≤ Selectivity < 70)” and the pIC50 ([2]; long incubation (120 min)) was 5.30 to 6.30.

In the case of `C=CC(=O)N(C)[C@@H](C)C(=O)N[C@@H](Cc1ccc(C)cc1C)B(O)O` [Compound No. 49, [(1R)-2-(2,4-dimethylphenyl)-1-[[(2S)-2-[methyl(prop-2-enoyl)amino]propanoyl]amino]ethyl]boronic Acid], the pIC50 ([1]; long incubation (120 min)) was under 5.30, the “Selectivity LMP7 vs Beta5” value [2, 3] was “++++ (100 ≤ Selectivity < 150)” and the pIC50 ([2]; long incubation (120 min)) was 6.30 to 7.30.

With `C=CC(=O)N(CC(=O)N[C@@H](Cc1ccc(C)cc1C)B(O)O)CC(F)(F)F` [Compound No. 57, [(1R)-2-(2,4-dimethylphenyl)-1-[[2-[prop-2-enoyl(2,2,2-trifluoroethyl)amino]acetyl]amino]ethyl]boronic Acid] the pIC50 ([1]; long incubation (120 min)) was under 5.30, the “Selectivity LMP7 vs Beta5” value [2, 3] was “+++++ (Selectivity ≥ 150)” and the pIC50 ([2]; long incubation (120 min)) was 6.30 to 7.30.

`C=CC(=O)N(C)CC(=O)N[C@@H](Cc1cccc2ccccc12)B(O)O` [Compound No. 80, [(1R)-1-[[2-[methyl(prop-2-enoyl)amino]acetyl]amino]-2-(1-naphthyl)ethyl]boronic Acid] was tested, and the pIC50 ([1]; long incubation (120 min)) was under 5.30, the “Selectivity LMP7 vs Beta5” value [2, 3] was “+++++ (Selectivity ≥ 150)” and the pIC50 ([2]; long incubation (120 min)) was 6.30 to 7.30.

`C=CC(=O)N(CCC)CC(=O)N[C@@H](Cc1ccc(C)c(C)c1)B(O)O` [Compound No. 5, [(1R)-2-(3,4-dimethylphenyl)-1-[[2-[prop-2-enoyl(propyl)amino]-acetyl]amino]ethyl]boronic Acid] was tested, and the pIC50 ([1]; incubation for 20 minutes) was under 5.30, the “Selectivity LMP7 vs Beta5” value [2, 4] was “++++ (100 ≤ Selectivity < 150)” and the pIC50 ([2]; incubation for 20 minutes) was 6.30 to 7.30.

With `C=CC(=O)N(CC(=O)N[C@@H](Cc1ccc(C)cc1C)B(O)O)c1cccc(F)c1` [Compound No. 4, [(1R)-2-(2,4-dimethylphenyl)-1-[[2-(3-fluoro-N-prop-2-enoyl-anilino)acetyl]amino]ethyl]boronic Acid] the pIC50 ([1]; incubation for 20 minutes) was 5.30 to 6.30, the “Selectivity LMP7 vs Beta5” value [2, 4] was “+++++ (Selectivity ≥ 150)” and the pIC50 ([2]; incubation for 20 minutes) was over 7.30.

`CC#CC(=O)N(CC)CC(=O)N[C@@H](Cc1ccc(C)cc1C)B(O)O` [Compound No. 19, [(1R)-1-[[2-[but-2-ynoyl(ethyl)amino]acetyl]amino]-2-(2,4-dimethylphenyl)ethyl]boronic Acid] was tested, and the pIC50 ([1]; incubation for 20 minutes) was 5.30 to 6.30, the “Selectivity LMP7 vs Beta5” value [2, 4] was “+++ (70 ≤ 100)” and the pIC50 ([2]; incubation for 20 minutes) was over 7.30.

With `C=CC(=O)N(CC(=O)N[C@@H](Cc1ccc(C)c(C)c1)B(O)O)C1CC1` [Compound No. 71, [(1R)-1-[[2-[cyclopropyl(prop-2-enoyl)amino]acetyl]amino]-2-(3,4-dimethylphenyl)ethyl]boronic Acid] the pIC50 ([1]; long incubation (120 min)) was under 5.30, the “Selectivity LMP7 vs Beta5” value [2, 3] was “+++++ (Selectivity ≥ 150)” and the pIC50 ([2]; long incubation (120 min)) was over 7.30.

In the case of `C=CC(=O)N(c1ccccc1)[C@H](C)C(=O)N[C@@H](Cc1ccc(C)cc1C)B(O)O` [Compound No. 45, [(1R)-2-(2,4-dimethylphenyl)-1-[[(2R)-2-(N-prop-2-enoylanilino)propanoyl]amino]ethyl]boronic Acid], the pIC50 ([1]; long incubation (120 min)) was under 5.30, the “Selectivity LMP7 vs Beta5” value [2, 3] was “+++++ (Selectivity ≥ 150)” and the pIC50 ([2]; long incubation (120 min)) was 6.30 to 7.30.

In the case of `C=CC(=O)N(CC(=O)N[C@@H](Cc1ccccc1)B(O)O)C(C)C` [Compound No. 35, [(1R)-1-[[2-[isopropyl(prop-2-enoyl)amino]acetyl]amino]-2-phenyl-ethyl]boronic Acid], the pIC50 ([1]; incubation for 20 minutes) was under 5.30, the “Selectivity LMP7 vs Beta5” value [2, 4] was “+ (Selectivity < 50)” and the pIC50 ([2]; incubation for 20 minutes) was 6.30 to 7.30.

With `C=CC(=O)N(CC(=O)N[C@@H](Cc1ccc(C)cc1C)B(O)O)C1CC1` [Compound No. 59, [(1R)-1-[[2-[cyclopropyl(prop-2-enoyl)amino]acetyl]amino]-2-(2,4-dimethylphenyl)ethyl]boronic Acid] the pIC50 ([1]; long incubation (120 min)) was under 5.30, the “Selectivity LMP7 vs Beta5” value [2, 3] was “+++++ (Selectivity ≥ 150)” and the pIC50 ([2]; long incubation (120 min)) was over 7.30.

For `C=CC(=O)N(CC(=O)N[C@@H](Cc1cccc(F)c1)B(O)O)c1ccccc1F` [Compound No. 98, [(1R)-2-(3-fluorophenyl)-1-[[2-(2-fluoro-N-prop-2-enoyl-anilino)acetyl]amino]ethyl]boronic Acid], the pIC50 ([1]; long incubation (120 min)) was under 5.30, the “Selectivity LMP7 vs Beta5” value [2, 3] was “+++++ (Selectivity ≥ 150)” and the pIC50 ([2]; long incubation (120 min)) was over 7.30.

Source: patent US10669289B2, “Boronic acid derivatives” (MERCK PATENT GMBH, priority 2014, dated 2020)
